One data set has as its system C. albicans SC5314 (S). Set-up: method as in PMID 36358216. To be noted: sensitive to fluconazole; cited from earlier work.
Data set [1] relates to C. albicans 256 HUSI-PUJ (R). Set-up: method as in PMID 36358216. To be noted: resistant to fluconazole; cited from earlier work.
The subject of the next data set is HeLa cell line. Particulars: cited from earlier work. The procedure:
(§1) Finally, the cytotoxic effect of the conjugates over fibroblasts, MCF-7, and HeLa cell lines was evaluated (Figure 7).

The subject of a further data set is MCF-7 cell line. To be noted: cited from earlier work. The procedure: as §1
The next data set deals with S. aureus ATCC 25923. In kind it is cell-based, Staphylococcus aureus. Particulars: for MBC S. aureus 25923: ATCC 25923, 24 h; for MIC S. aureus 25923: broth microdilution, Mueller Hinton broth, 24 h at 37 °C, absorbance 620 nm, in duplicate, strain sensitive to vancomycin. The procedure:
(§2) The minimum inhibitory concentration (MIC) was determined using a broth microdilution assay. Specifically, […] of Mueller Hinton broth and 90 μL of peptide (initial concentration 444 μg/mL) were added to a 96-well plate, with serial dilutions (200, 100, 50, 25, 12.5, and […] μg/mL). Then, 10 μL (5 × 10^5 CFU/mL) of inoculum was added to each well, and the final volume in each well was 100 μL. They were incubated for 24 h at 37 °C, and absorbance at 620 nm was measured using the ELISA reader. To determine the minimum bactericidal concentration (MBC), an aliquot was taken from each well and placed on a Mueller Hinton Agar plate. After 24 h of incubation at 37 °C, the MBC was determined. Each of these tests was performed in duplicate.
(In general: In broth dilution the organism is exposed to a series of concentrations in liquid medium.)

The test system of another data set is E. coli ATCC 25922. Format: cell-based, Escherichia coli. The procedure:
as §2

For the next data set, the system named is erythrocytes. In kind it is cell-based. The procedure:
First, 5.0 mL of heparinized peripheral blood was centrifuged at 1000 rpm for 7 min. The erythrocyte fraction was suspended in […] saline solution (SS) and washed twice by centrifugation at 1000 rpm for 7 min. The erythrocytes (2% hematocrit) were incubated with peptide (ranging from 6.2 to 200 µg/mL) for 2 h at 37 °C. SS was used as a negative control, while distilled water was used as a positive control. The mixtures were centrifuged, the supernatants were collected, and the absorbance was determined to be 540 nm.

Converted amounts (≈) assume the structure as drawn. Like-named read-outs stand apart in the source and are kept apart here. Peptide text beside a SMILES is read from it.

RLLRRLLR: the “MIC C. albicans strain ATCC SC5314” value in the data set on C. albicans SC5314 (S) is listed as greater than 183 µM. For the same compound, the “MIC clinical isolate C. albicans 256 HUSI-PUJ” value in data set [1] is recorded as greater than 183 µM.
As to (RRWQWR)4-K2-C2, in the data set on HeLa cell line, the “Cytotoxicity against HeLa” value is recorded as “exhibited cytotoxicity”. Besides, the “Cytotoxicity against MCF-7” value with MCF-7 cell line is recorded as “exhibited cytotoxicity”.
In the data set with S. aureus ATCC 25923, `CC(C)C[C@H](NC(=O)[C@H](CC(C)C)NC(=O)[C@@H](N)CCCNC(=N)N)C(=O)N[C@@H](CCCNC(=N)N)C(N)=O` [RLLR] (H-RLLR-NH2) returned an MBC S. aureus 25923 greater than 359 µM and an MIC S. aureus 25923 greater than 359 µM. For the same compound, in the data set with E. coli ATCC 25922 (ATCC 25922, 24 h), the MBC E. coli 25922 was greater than 359 µM and the MIC E. coli 25922 is greater than 359 µM.
With `N=C(N)NCCC[C@H](NC(=O)[C@H](Cc1c[nH]c2ccccc12)NC(=O)[C@H](CCC(N)=O)NC(=O)[C@H](Cc1c[nH]c2ccccc12)NC(=O)[C@H](CCCNC(=N)N)NC(=O)[C@@H](N)CCCNC(=N)N)C(N)=O` [RRWQWR] (H-RRWQWR-NH2), in the data set with S. aureus ATCC 25923, the MBC S. aureus 25923 is greater than 203 µM and the MIC S. aureus 25923 is greater than 203 µM. Further, in the data set with E. coli ATCC 25922 (ATCC 25922, 24 h), the MBC E. coli 25922 was 203 µM (≈ 200 µg/mL) and the MIC E. coli 25922 was 203 µM (≈ 200 µg/mL).
“CTpH(F)-(AAC-(K)-RRWQWR)4 (rctt) [tetravalent (peptide)4-resorcinarene conjugate with four copies of RRWQWR on CTpH(F)]”: the “Hemolytic effect at the MIC values” with erythrocytes is given as “Neither of the two conjugates exhibited a significant hemolytic effect”. Further, the MBC E. coli 25922 with E. coli ATCC 25922 (aliquot of each MIC well on Mueller Hinton Agar, 24 h at 37 °C, in duplicate) was determined as 36 µM. The same compound yielded an MIC E. coli 25922 with E. coli ATCC 25922 (broth microdilution, Mueller Hinton broth, 24 h at 37 °C, absorbance 620 nm, in duplicate, strain susceptible to ciprofloxacin) of 36 µM.

(Values after article PMC10135297, “Peptide-Resorcinarene Conjugates Obtained via Click Chemistry: Synthesis and Antimicrobial Activity” (Antibiotics, 2023).)
